This is an account of results in US4542137A, “Alkylaminodesoxy-1.4;3.6-dianhydrohexitol nitrates substituted by purine bases and pharmaceutical compositions” (priority 1980, dated 1985).

Like-named read-outs stand apart in the source and are kept apart here.

For the experiment, the system named is isolated guinea pig hearts. Put plainly: coronary flowthrough-increasing effectiveness on isolated guinea pig hearts according to Langendorff. To be noted: Cavia porcellus, 25 μg/ml in tyrode solution, Langendorff heart; for activation at 25 µg/mL: read-out: flowthrough (coronary), percentage change in comparison with the initial value. Here is the method: After achieving the stationary state in the 30th minute, the hearts were each infused with 50 ml. tyrode solution with a content of test substance of, in each case, 25 μg./ml. Each test substance was tested on 3-6 hearts.
In each case, there was measured the inotropism, the flowthrough and the frequency, whereby the values given in Table I are average values of the percentage changes in comparison with the starting values.

Where [1] appears, read: read-out: frequency, percentage change in comparison with the initial value.
Setting [2] is: read-out: inotropism, percentage change in comparison with the initial value.

For the molecule `Cn1c(=O)c2c(ncn2CCCN[C@H]2CO[C@H]3[C@@H]2OC[C@@H]3O[N+](=O)[O-])n(C)c1=O` [Example 1d, 5-(3-Theophyllin-7-ylpropyl)-amino-5-desoxy-1.4;3.6-dianhydro-L-iditol 2-nitrate], the activation at 25 µg/mL amounted to 56.4%. Besides, under setting [1], the inhibition at 25 µg/mL is 1.95%. Besides, the inhibition at 25 µg/mL under setting [2] was found to be 1.29%.

Turning to `CN(CCCn1cnc2c1c(=O)n(C)c(=O)n2C)[C@H]1CO[C@H]2[C@@H]1OC[C@@H]2O[N+](=O)[O-]` [Example 9c, 5-[N-Methyl-N-(3-theophyllin-7-ylpropyl)-amino]-5-desoxy-1.4;3.6-dianhydro-L-iditol 2-nitrate], the activation at 25 µg/mL was 40.5%. Further, under setting [1], the percent change from initial value at 25 µg/mL was found to be 0%. Besides, under setting [2], the inhibition at 25 µg/mL was 4.3%.
